# Reference: patent US20240041877A1, “DOSAGE REGIME AND METHOD FOR TREATING PULMONARY ARTERIAL HYPERTENSION” (Altavant Sciences GmbH, priority 2019, published 2024)
# Experiment: Study KAR5585-101 Part 1 (SAD): plasma pharmacokinetics after a single oral dose of KAR5585, fasting and fed (incl. dose proportionality and food effect)
# Details: for AUC / AUC(0-inf) / concentration at 12 h / Cmax / Vd/F / half-life / Tmax: human, plasma, po; for AUC: AUC0-tau; for AUC(0-inf): AUC0-∞; for Vd/F: Vz/F
# [1] = 400 mg, 400 mg KAR5585 single oral, fasted, Cohort 3A, Mean
# [2] = 400 mg, 400 mg KAR5585 single oral, fed, Cohort 3B, Geo. Mean
# [3] = 400 mg, 400 mg KAR5585 single oral, fed, Cohort 3B, Mean
# [4] = 400 mg, Geometric Mean, Cohort 3A (Fasting), 400 mg KAR5585 single oral dose, fasting
# [5] = 400 mg, Geometric Mean, Cohort 3B (Fed), 400 mg KAR5585 single oral dose, fed
# [6] = 400 mg, 400 mg KAR5585 single oral, fasted, Cohort 3A, Geo. Mean
# [7] = 700 mg, 700 mg KAR5585 single oral, fasted, Cohort 4, Geo. Mean
# [8] = 700 mg, 700 mg KAR5585 single oral, fasted, Cohort 4, Mean
# [9] = 1200 mg, 1200 mg KAR5585 single oral, fasted, Cohort 5, Geo. Mean
# [10] = 1200 mg, 1200 mg KAR5585 single oral, fasted, Cohort 5, Mean
# [11] = 2000 mg, 2000 mg KAR5585 single oral, fasted, Cohort 6, Geo. Mean
# [12] = 2000 mg, 2000 mg KAR5585 single oral, fasted, Cohort 6, Mean
# Description: Food effect was to be evaluated in Part 1, Period 2. Part 2 was permitted to begin before Part 1 was completed and, in each part, the data from each dose Cohort were to be reviewed for safety before the next dose Cohort was enrolled.
# Part 1 had 6 Cohorts of 12 subjects each (for a total of 72 subjects) and Part 2 had 4 Cohorts of 12 subjects each (for a total of 48 subjects). In Part 1, the 12 subjects in Cohort 3 (400 mg)were studied twice, once under fasting conditions (Period 1) and once under fed conditions (Period 2) for food-effect assessment.
# Pharmacokinetic data were to be summarized descriptively.
smiles,measurement,setting,value
"CCOC(=O)[C@@H]1CC2(CCN(c3cc(O[C@H](c4ccc(Cl)cc4-c4ccccc4)C(F)(F)F)nc(N)n3)CC2)CN1 [KAR5585, (S)-ethyl 8-(2-amino-6-((R)-1-(5-chloro-[1,1′-biphenyl]-2-yl)-2,2,2-trifluoroethoxy)pyrimidin-4-yl)-2,8-diazaspiro[4.5]decane-3-carboxylate]",AUC,[1],219 ng·h/mL
same,AUC,[2],854 ng·h/mL
same,AUC,[3],868 ng·h/mL
same,AUC,[4],176 ng·h/mL
same,AUC,[5],854 ng·h/mL
same,AUC(0-inf),[6],288 ng·h/mL
same,AUC(0-inf),[1],302 ng·h/mL
same,AUC(0-inf),[2],903 ng·h/mL
same,AUC(0-inf),[3],915 ng·h/mL
same,concentration at 12 h,"400 mg, C12, 400 mg KAR5585 single oral, fasted, Cohort 3A, Geo. Mean",7.4 ng/mL
same,concentration at 12 h,"400 mg, C12, 400 mg KAR5585 single oral, fasted, Cohort 3A, Mean",7.45 ng/mL
same,concentration at 12 h,"400 mg, C12, 400 mg KAR5585 single oral, fed, Cohort 3B, Geo. Mean",19.7 ng/mL
same,concentration at 12 h,"400 mg, C12, 400 mg KAR5585 single oral, fed, Cohort 3B, Mean",21 ng/mL
same,Cmax,[6],42 ng/mL
same,Cmax,[1],52.8 ng/mL
same,Cmax,[2],165 ng/mL
same,Cmax,[3],169 ng/mL
same,Cmax,[4],42 ng/mL
same,Cmax,[5],165 ng/mL
same,Vd/F,[6],8100 L
same,Vd/F,[1],8330 L
same,Vd/F,[2],2730 L
same,Vd/F,[3],2780 L
same,half-life,"400 mg, t1 (t½, apparent terminal half-life), 400 mg KAR5585 single oral, fasted, Cohort 3A, Geo. Mean",4.04 h
same,half-life,"400 mg, t1 (t½, apparent terminal half-life), 400 mg KAR5585 single oral, fasted, Cohort 3A, Mean",4.08 h
same,half-life,"400 mg, t1 (t½, apparent terminal half-life), 400 mg KAR5585 single oral, fed, Cohort 3B, Geo. Mean",4.26 h
same,half-life,"400 mg, t1 (t½, apparent terminal half-life), 400 mg KAR5585 single oral, fed, Cohort 3B, Mean",4.45 h
same,Tmax,"400 mg, tmax, 400 mg KAR5585 single oral, fasted, Cohort 3A, Median",2.07 h
same,Tmax,"400 mg, tmax, 400 mg KAR5585 single oral, fed, Cohort 3B, Median",3 h
same,AUC,[7],362 ng·h/mL
same,AUC,[8],386 ng·h/mL
same,AUC(0-inf),[7],412 ng·h/mL
same,AUC(0-inf),[8],436 ng·h/mL
same,concentration at 12 h,"700 mg, C12, 700 mg KAR5585 single oral, fasted, Cohort 4, Geo. Mean",9.84 ng/mL
same,concentration at 12 h,"700 mg, C12, 700 mg KAR5585 single oral, fasted, Cohort 4, Mean",10.7 ng/mL
same,Cmax,[7],95.2 ng/mL
same,Cmax,[8],99.4 ng/mL
same,Vd/F,[7],8390 L
same,Vd/F,[8],9120 L
same,half-life,"700 mg, t1 (t½, apparent terminal half-life), 700 mg KAR5585 single oral, fasted, Cohort 4, Geo. Mean",3.42 h
same,half-life,"700 mg, t1 (t½, apparent terminal half-life), 700 mg KAR5585 single oral, fasted, Cohort 4, Mean",3.46 h
same,Tmax,"700 mg, tmax, 700 mg KAR5585 single oral, fasted, Cohort 4, Median",1.75 h
same,AUC,[9],296 ng·h/mL
same,AUC,[10],364 ng·h/mL
same,AUC(0-inf),[9],406 ng·h/mL
same,AUC(0-inf),[10],462 ng·h/mL
same,concentration at 12 h,"1200 mg, C12, 1200 mg KAR5585 single oral, fasted, Cohort 5, Geo. Mean",11 ng/mL
same,concentration at 12 h,"1200 mg, C12, 1200 mg KAR5585 single oral, fasted, Cohort 5, Mean",11.8 ng/mL
same,Cmax,[9],68.1 ng/mL
same,Cmax,[10],83 ng/mL
same,Vd/F,[9],14500 L
same,Vd/F,[10],16900 L
same,half-life,"1200 mg, t1 (t½, apparent terminal half-life), 1200 mg KAR5585 single oral, fasted, Cohort 5, Geo. Mean",3.4 h
same,half-life,"1200 mg, t1 (t½, apparent terminal half-life), 1200 mg KAR5585 single oral, fasted, Cohort 5, Mean",3.58 h
same,Tmax,"1200 mg, tmax, 1200 mg KAR5585 single oral, fasted, Cohort 5, Median",2 h
same,AUC,[11],638 ng·h/mL
same,AUC,[12],773 ng·h/mL
same,AUC(0-inf),[11],667 ng·h/mL
same,AUC(0-inf),[12],778 ng·h/mL
same,concentration at 12 h,"2000 mg, C12, 2000 mg KAR5585 single oral, fasted, Cohort 6, Geo. Mean",26.2 ng/mL
same,concentration at 12 h,"2000 mg, C12, 2000 mg KAR5585 single oral, fasted, Cohort 6, Mean",37.4 ng/mL
same,Cmax,[11],95.1 ng/mL
same,Cmax,[12],104 ng/mL
same,Vd/F,[11],20600 L
same,Vd/F,[12],25100 L
same,half-life,"2000 mg, t1 (t½, apparent terminal half-life), 2000 mg KAR5585 single oral, fasted, Cohort 6, Geo. Mean",4.76 h
same,half-life,"2000 mg, t1 (t½, apparent terminal half-life), 2000 mg KAR5585 single oral, fasted, Cohort 6, Mean",4.84 h
same,Tmax,"2000 mg, tmax, 2000 mg KAR5585 single oral, fasted, Cohort 6, Median",2 h
same,Vd/F,"range across dose levels, single oral KAR5585",5680 to 25100 L
same,half-life,"mean apparent elimination half-life, range across dose levels, single oral KAR5585 100-2000 mg",1.89 to 4.84 h
same,Tmax,"median tmax, range across cohorts, single oral 100-2000 mg KAR5585, fasting cohorts",1.5 to 3 h
same,time concentrations remained above the LLOQ,"single 100 mg KAR5585, fasting",up to 4 hours
same,time concentrations remained above the LLOQ,"single 200 mg KAR5585, fasting",up to 12 hours
same,time concentrations remained above the LLOQ,"single 700 mg KAR5585, fasting",up to 12 hours
same,time concentrations remained above the LLOQ,"single 1200 mg KAR5585, fasting",up to 12 hours
same,"dose proportionality of AUC0-inf and Cmax (power model, 95% CI of slope)","single dose range 100 to 2000 mg KAR5585, fasting",dose proportionality was not concluded
